The record followed here is patent US11779582B2, “Composition for preventing or treating metastatic ovarian cancer, endometrial cancer or breast cancer” (LEMONEX INC., priority 2017, dated 2023).

Common to all, as to assay type: cell-based
For data set [1], the system named is sphere cultured SKOV3ip1 cells. As to the kind of experiment: microscopic observation of aggregated (spheroid) form. The note with it: 5 μM BGJ398, 3 μM TAE648, 5 μM imatinib (FIG. 5). Here is the method: For 3D sphere culture, SKOV3ip1 cells (1×10^6) were dispensed on ultra-low adherent 6-well plate (Corning NY, USA), and then, cultured in 5% CO2 incubator using RPMI 1640 medium supplemented with 10% fetal bovine serum (Gibco, NY, USA) and 10 U/ml penicillin/streptomycin (Gibco).

Data set [2] has as its system SKOV3-TR. In words: crystal violet staining assay, cisplatin and BGJ398, 2D culture. The note with it: BGJ398 in combination with cisplatin (FIGS. 30 and 31). The protocol:
(§1) According to the same procedures as described in the previous examples, each cell line was subjected to 2D culture and a change thereof upon administration of cisplatin alone, BGJ398 alone or in combination with cisplatin was analyzed through crystal violet staining assay.

Data set [3] relates to SKOV3ip1. The data set is described as above. The settings on record: SKOV3ip1, BGJ398 in combination with cisplatin (FIGS. 30 and 31). The protocol:
as §1

For data set [4], the system named is AKT and STAT3 phosphorylation in sphere cultured SKOV3ip1 cells. In words: immunostaining of AKT and STAT3 phosphorylation, sphere culture. From the text:
In order to identify whether a change in signaling pathways associated with cell survival appears or not according to 2D monolayer culture (2D MC) and 3D sphere culture (3D SC), immunostaining was implemented. More particularly, after culturing SKOV3ip1 cells (1×10^6) by 2D monolayer culture or 3D sphere culture described in section 1.1, expression of cell-signaling molecules including AKT, STAT3, p42/44 ERK and p38 MAPK was detected and activation states in the monolayer cultured cells and the sphere cultured cells were compared. The monolayer cultured or sphere cultured SKOV3ip1 cells were harvested and washed once with ice-cold 1× phosphate buffered saline, followed by dissolving the same in 100 μl ice-cold RIPA buffer (20 mM Tris-Cl, pH 8.0, 125 mM NaCl, […], 1 mM ethylene diamine tetraacetic acid, 1% Triton X-100, 0.5% sodium deoxycholate, 0.1% sodium dodecyl sulfate, 1× complete protease inhibitor cocktail (Roche, Mannheim, Germany)) on ice. After assessing the protein concentration using a Bradford Protein assay kit (Biorad, CA, USA), the same amount of proteins (30 μg) was separated by SDS-PAGE and moved to a nitrocellulose membrane, followed by immunostaining the same using a horseradish peroxide conjugated second antibody and a specific antibody. An immune activation band was detected with SuperSignal West Pico Chemiluminescent Substrate (Thermo, IL, USA) using a Fusion Solo chemiluminescence analyzer (Vilber Rourmat Marne la Vallee, France). Antibodies to STAT3 (H-190), STAT3 (B-7) phosphorylated at Tyr705 and actin (C-2) were purchased from Santa Cruz Biotechnology. Rabbit monoclonal antibodies on AKT, AKT (D9E) phosphorylated at Ser473, FGFR1 phosphorylated at Tyr 653/654, p42/44 MAPK, phosphorylated p42/44 MAPK, p38 MAPK and p38 MAPK phosphorylated at Tyr 180/182 were purchased from Cell Signaling Technology (MA, USA). Further, HRP-conjugated goat anti-mouse and rabbit secondary antibodies were purchased from Jackson Laboratories, while BGJ398 used in the experiment (against FGFR1/2/3) was purchased from Selleckchem (USA).
Under this ground, in order to determine whether BGJ398 can vary the state of AKT and STAT3 in the sphere cultured SKOV3ip1 cells, the monolayer cultured (MC) or sphere cultured (SC) SKOV3ip1 cells were subjected to treatment using 5 μM BGJ398, followed by examining the degree of phosphorylation due to the above treatment.
Further, the sphere cultured SKOV3ip1 cells were treated with 5 μM BGJ398 (BGJ), 3 μM TAE648 (TAE) and 5 μM imatinib (IMT), respectively. After 72 hours, a cell lysate was obtained and subjected to immunostaining, followed by analyzing active cellular expression of AKT and STAT3 with the antibody for the same. Further, a phosphorylation level of FGFR1 was used as a positive control group relative to BGJ treatment groups while actin was used as a loading control group. The immunostaining assay procedure was implemented in the same manner as in Example 1.
Since the cell survival of the sphere cultured SKOV3ip1 cells is inhibited by BGJ398 treatment, whether such cell survival inhibition is intermediated through JAK/STAT3 signaling pathway was further examined. […]

Data set [5] relates to SKOV3-TR ovarian cancer cells. In words: crystal violet cell viability in paclitaxel-resistant cells. The protocol: SKOV3-TR cell line was offered from Sood AK in MD-Anderson Cancer Center (USA) and then used in the present experiments.
Paclitaxel resistance of each of SKOV3 and SKOV3-TR was determined by measuring the cell viability through crystal violet colorimetric assay. This experiment was implemented three times and a difference in results thereof was estimated by student's t-test.
(§2) According to the same procedures as described in the previous examples, each cell line was divided and cultured by 2D monolayer culture and 3D sphere culture, respectively. Then, a change due to administration of BGJ398 alone or in combination with paclitaxel was analyzed through morphological analysis and crystal violet staining assay.

For data set [6], the system named is SKOV3-TR ovarian cancer cells. In words: microscopic analysis of cell shape change due to cytotoxicity. Here is the method:
as §2
FIG. 20 illustrates a change in cell shape due to cytotoxicity under microscopic analysis, when paclitaxel alone, BGJ398 alone or in combination with paclitaxel was administered to SKOV3-TR ovarian cancer cells.

For `CCN1CCN(c2ccc(Nc3cc(N(C)C(=O)Nc4c(Cl)c(OC)cc(OC)c4Cl)ncn3)cc2)CC1` [BGJ398, 3-(2,6-dichloro-3,5-dimethoxyphenyl)-1-[6-[4-(4-ethylpiperazin-1yl)anilino]pyrimidin-4-yl]-1-methylurea], the “aggregated (spheroid) form of cells” value in data set [1] was “did not retain a normal coagulation state”. Besides, the anticancer activity result is “anticancer activity is improved” in data set [2]; “anticancer activity is improved” in data set [3]; “higher anticancer activity with the increased concentration of BGJ398” in data set [5] (BGJ398 at increasing concentration in combination with paclitaxel (FIG. 18)); “higher anticancer activity with the increased concentration of paclitaxel” in data set [5] (BGJ398 in combination with paclitaxel at increasing concentration (FIG. 19)); “significantly improved” in data set [5] (BGJ398 in combination with paclitaxel vs paclitaxel alone (FIG. 16)); “more improved” in data set [5] (BGJ398 in combination with paclitaxel, 2D monolayer culture and 3D sphere culture (FIG. 17)). In addition, in data set [4] (sphere cultured SKOV3ip1, 5 μM BGJ398 (FIG. 6), AG490, 72 hours (FIG. 7B)), the “AKT and STAT3 phosphorylation” value is listed as “suppressed again”. Also, the “phosphorylated AKT at Ser473” value in data set [4] (sphere cultured, 5 μM BGJ398, 3 μM TAE648, 5 μM imatinib, 72 hours (FIG. 6)) is on record as “inhibits phosphorylated AKT at Ser473 residue”. In addition, the “cytotoxicity and morphological change” value was “a detachment phenomenon due to cytotoxicity and formation of cells in irregular shapes” in data set [6] (2.5 μM BGJ398 in combination with 50 nM paclitaxel (FIG. 20)); “negligible cytotoxicity and no morphological change” in data set [6] (single agent: 2.5 μM BGJ398 or 50 nM paclitaxel (FIG. 20)).
